As a reminder, the IC50 is the concentration at which inhibition is half-maximal. Broadly, the melting point is the temperature of the solid-liquid transition.

Like-named read-outs stand apart in the source and are kept apart here.

Data on 28 compounds can be found in patent US20120083471A1, “Novel Compounds, Pharmaceutical Compositions Containing Same, Methods of Use for Same, and Methods for Preparing Same” (priority 2008, published 2012).

Data set [1] concerns FAO. Briefly: FAO (SC 150 and Max) entries of the compound data sheets.
Data set [2] has as its target T1, mtGPAT1 (Mus musculus, UniProt Q61586).
T1 construct: from tissue; host or cells: mitochondrial preparation
T1 sequence (Q61586 1-827): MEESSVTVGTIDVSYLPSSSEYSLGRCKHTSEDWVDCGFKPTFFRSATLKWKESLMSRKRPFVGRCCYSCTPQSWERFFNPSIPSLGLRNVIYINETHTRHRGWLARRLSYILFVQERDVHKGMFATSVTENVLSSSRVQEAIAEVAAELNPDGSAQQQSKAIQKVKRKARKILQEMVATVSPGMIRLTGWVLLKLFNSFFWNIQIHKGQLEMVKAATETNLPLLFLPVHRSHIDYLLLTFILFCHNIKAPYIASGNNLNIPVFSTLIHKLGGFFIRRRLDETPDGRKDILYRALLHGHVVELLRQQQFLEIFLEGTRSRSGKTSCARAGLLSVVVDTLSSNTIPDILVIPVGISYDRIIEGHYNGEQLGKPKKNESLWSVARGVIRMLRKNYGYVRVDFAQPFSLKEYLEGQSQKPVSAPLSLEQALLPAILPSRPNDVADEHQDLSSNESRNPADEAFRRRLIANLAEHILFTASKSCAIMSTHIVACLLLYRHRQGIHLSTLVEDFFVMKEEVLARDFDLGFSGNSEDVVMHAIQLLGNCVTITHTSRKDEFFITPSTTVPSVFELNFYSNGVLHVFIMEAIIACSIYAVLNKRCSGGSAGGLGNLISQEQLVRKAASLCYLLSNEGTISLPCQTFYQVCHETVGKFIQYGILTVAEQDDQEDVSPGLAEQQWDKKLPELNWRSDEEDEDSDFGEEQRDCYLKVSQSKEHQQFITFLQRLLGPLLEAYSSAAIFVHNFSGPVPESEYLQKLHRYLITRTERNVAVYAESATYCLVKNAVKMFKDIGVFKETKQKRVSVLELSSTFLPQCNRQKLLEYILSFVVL
The experiment in a line: In vitro mtGPAT inhibition: acylation of 14C-glycerol 3-phosphate with palmitoyl-CoA, scintillation counting. Format: biochemical. The method, then:
The compounds produced as described above were evaluated for their ability to inhibit the acylation of glycerol-3-phosphate in vitro. The acylation reaction between ^14C-labelled glycerol-3-phosphate and palmitoyl-CoA, initiated by adding mtGPAT, was measured in the presence of varying concentrations of the inhibitor by scintillation counting as described in more detail below.
A mitochondrial preparation of glycerol 3-phosphate acyltransferase was added to the incubation mixture containing ^14C-labeled glycerol 3-phosphate, palmitoyl-CoA, and varying inhibitor concentrations to initiate the reaction. After ten min, the reaction was terminated by adding chloroform, methanol, and 1% perchloric acid. Five minutes later, more chloroform and perchloric acid were added, and the upper aqueous layer was removed. After washing three times with 1% perchloric acid, the organic layer was evaporated under nitrogen, and the amount of ^14C present was counted to determine the extent of reaction inhibition. Data points were recorded in triplicate, and IC50 values were calculated based on the amount of test inhibitor necessary to produce 50% of mtGPAT activity observed in the absence of inhibitor but in the presence of DMSO vehicle control.

[3] abbreviates: compounds 4a-t and 7a-t, read-out: GPAT IC50.
Setting [4] is: Table 1, sulfonamides 5a-f and 13a-f, triplicate, read-out: IC50 (μM) ± SD, In Vitro Anti-mtGPAT1 Activity.
[5] abbreviates: Table 2, sulfonamides 15a-i and 17a-f, triplicate, read-out: IC50 (μM) ± SD, In Vitro Anti-mtGPAT1 Activity.
Where [6] appears, read: Table 3, sulfonamides 21a-c and 24a-f, triplicate, read-out: IC50 (μM) ± SD, In Vitro Anti-mtGPAT1 Activity.

`CCCCCCCCS(=O)(=O)Nc1cc(-c2ccccc2Cl)ccc1C(=O)O`: the “FAO SC 150” value in data set [1] is listed as “FAS (IC50) Not Tested CPT I Stim Not Tested FAO SC 150 Neg SA/MH (MIC) ug/ml”. Further, in data set [2] (setting [3]), the IC50 came out at 23.1 µM.
For `CCCCCCCCS(=O)(=O)Nc1cc(-c2ccc(C#N)cc2)ccc1C(=O)O`, in that order: “FAS (IC50) Not Tested CPT I Stim Not Tested FAO SC 150 Neg SA/MH (MIC) ug/ml” and 20 µM.
Turning to `CCCCCCCCS(=O)(=O)Nc1cc(-c2cccc(C(C)=O)c2)ccc1C(=O)O`, in data set [1], the “FAO SC 150” value was “FAS (IC50) Not Tested CPT I Stim Not Tested FAO SC 150 Neg SA/MH (MIC) ug/ml”. For the same compound, the IC50 in data set [2] (setting [3]) is 29.2 µM.
With `CCCCCCCCS(=O)(=O)Nc1ccc(-c2ccc(-c3ccccc3)cc2)cc1C(=O)O`, the “FAO SC 150” value in data set [1] was “FAS (IC50) Not Tested CPT I Stim Not Tested FAO SC 150 Neg SA/MH (MIC) ug/ml”. For the same compound, the IC50 in data set [2] (setting [3]) was found to be 65.7 µM.
In the case of `CCCCCCCCS(=O)(=O)Nc1ccc(-c2ccccc2OC)cc1C(=O)O`, the “FAO SC 150” value in data set [1] was “FAS (IC50) Not Tested CPT I Stim Not Tested FAO SC 150 Neg SA/MH (MIC) ug/ml”. In data set [2] (setting [3]), the IC50 is 23.4 µM.
For `CCCCCCCCS(=O)(=O)Nc1ccc(-c2ccc(OC)cc2)cc1C(=O)O` the same measures were “FAS (IC50) Not Tested CPT I Stim Not Tested FAO SC 150 Neg SA/MH (MIC) ug/ml” and 19.1 µM.
With `CCCCCCCCS(=O)(=O)Nc1ccc(-c2cccnc2)cc1C(=O)O`, the “FAO SC 150” value in data set [1] is recorded as “FAS (IC50) Not Tested CPT I Stim Not Tested FAO SC 150 Neg SA/MH (MIC) ug/ml”. For the same compound, in data set [2] (setting [3]), the IC50 is 76.3 µM.
For `CCCCCCCCS(=O)(=O)Nc1ccc(-c2cccs2)cc1C(=O)O`, in that order: “FAS (IC50) Not Tested CPT I Stim Not Tested FAO SC 150 Neg SA/MH (MIC) ug/ml” and 22.2 µM.
For `CCCCCCCCS(=O)(=O)Nc1ccc(-c2ccc(C#N)cc2)cc1C(=O)O` the same measures were “FAS (IC50) Not Tested CPT I Stim Not Tested FAO SC 150 Neg SA/MH (MIC) ug/ml” and 24.6 µM.
Take `CCCCCCCCS(=O)(=O)Nc1ccc(-c2ccc(Cl)cc2Cl)cc1C(=O)O`: the “FAO SC 150” value in data set [1] is recorded as “FAS (IC50) Not Tested CPT I Stim Not Tested FAO SC 150 Neg SA/MH (MIC) ug/ml”. The IC50 in data set [2] (setting [3]) was determined as 17.2 µM.
For `CCCCCCCCS(=O)(=O)Nc1ccc(-c2ccccc2O)cc1C(=O)O`, in that order: “FAS (IC50) Not Tested CPT I Stim Not Tested FAO SC 150 Neg SA/MH (MIC) ug/ml” and 63.4 µM.
For `CCCCCCCCS(=O)(=O)Nc1ccc(-c2ccccc2F)cc1C(=O)O` the same measures were “FAS (IC50) Not Tested CPT I Stim Not Tested FAO SC 150 Neg SA/MH (MIC) ug/ml” and 31.2 µM.
For `CCCCCCCCS(=O)(=O)Nc1ccc(-c2cccc(F)c2)cc1C(=O)O` the same measures were “FAS (IC50) Not Tested CPT I Stim Not Tested FAO SC 150 Neg SA/MH (MIC) ug/ml” and 52 µM.
`CCCCCS(=O)(=O)NCc1ccc(C(=O)O)cc1` [Compound 5a, 4-(Pentylsulfonamidomethyl)benzoic acid] showed a melting point of 188 to 189 °C. Further, the IC50 in data set [2] (setting [4]) was found to be 72 ± 1.7 µM.
On to `CCCCCCCCCS(=O)(=O)NCc1ccc(C(=O)O)cc1` [Compound 5b, 4-(Nonylsulfonamidomethyl)benzoic acid], for which the melting point lay within 178 to 180 °C. Moreover, the IC50 in data set [2] (setting [4]) turned out to be 43.9 µM.
For `CCCCCS(=O)(=O)NCc1cccc(C(=O)O)c1` [Compound 5c, 3-(Pentylsulfonamidomethyl)benzoic acid] the same measures were 160 to 161 °C and 88.5 ± 1.7 µM.
For `CCCCCCCCCS(=O)(=O)NCc1cccc(C(=O)O)c1` [Compound 5d, 3-(Nonylsulfonamidomethyl)benzoic acid], the melting point fell in the range of 150 to 151 °C. Further, in data set [2] (setting [4]), the IC50 came out at 28.5 µM.
For `CCCCCS(=O)(=O)NCc1ccccc1C(=O)O` [Compound 5e, 2-(Pentylsulfonamidomethyl)benzoic acid] the same measures were 100 °C and 61.9 ± 13.5 µM.
For `CCCCCCCCCS(=O)(=O)NCc1ccccc1C(=O)O` [Compound 5f, 2-(Nonylsulfonamidomethyl)benzoic acid], in that order: 79 to 82 °C and 22.7 µM.
For `CCCCCS(=O)(=O)Nc1cccc(CP(=O)(O)O)c1` [Compound 13c, 3-(Pentylsulfonamido)benzylphosphonic acid] the same measures were 127 to 128 °C and 45.3 ± 9 µM.
Take `CCCCCCCCCS(=O)(=O)Nc1cccc(CP(=O)(O)O)c1` [Compound 13d, 3-(Nonylsulfonamido)benzylphosphonic acid]: the melting point was in the range of 149 to 150 °C. Further, the IC50 in data set [2] (setting [4]) was 23.7 µM.
For `CCCCCS(=O)(=O)Nc1ccc(CP(=O)(O)O)cc1` [Compound 13e, 4-(Pentylsulfonamido)benzylphosphonic acid], in that order: 198 to 200 °C and 47.7 ± 9.6 µM.
The compound `CCCCCCCCCS(=O)(=O)Nc1cccc(C(=O)O)c1` [Compound 15d, 3-(Nonylsulfonamido)benzoic acid] yielded a melting point of 183 to 184 °C. Further, in data set [2] (setting [5]), the IC50 is 24.2 ± 2.9 µM.
Consider `O=C(O)c1ccccc1NS(=O)(=O)c1ccccc1` [Compound 15h, 2-(Phenylsulfonamido)benzoic acid], for which the melting point lay within 213 to 215 °C. In addition, in data set [2] (setting [5]), the IC50 was 40.5 ± 2.6 µM.
For `CCCCCCCCCCCCCCS(=O)(=O)Nc1ccccc1C(=O)O` [Compound 24b, 2-(Tetradecylsulfonamido)benzoic acid], the melting point was in the range of 120 to 122 °C. Moreover, the IC50 in data set [2] (setting [6]) was found to be 6.9 ± 0.5 µM.
For `CCCCCCCCCCCCCCCCS(=O)(=O)Nc1ccccc1C(=O)O` [Compound 24c, 2-(Hexadecylsulfonamido)benzoic acid] the same measures were 126 to 128 °C and 7.8 ± 0.8 µM.
For `CCCCCCCCS(=O)(=O)Nc1ccc(O)cc1C(=O)O` [Compound 24e, 5-Hydroxy-2-(octylsulfonamido)benzoic acid] the same measures were 142 to 144 °C and 38.2 ± 4.1 µM.
For `CCCCCCCCS(=O)(=O)Nc1ccc(F)cc1C(=O)O` [Compound 24f, 5-Fluoro-2-(octylsulfonamido)benzoic acid] the same measures were 141 to 143 °C and 29.5 ± 2.6 µM.
